This note sets out measurements from ChEMBL document CHEMBL1201862, “PubChem BioAssay data set” (2004).

Experiment [1] deals with Photoreceptor-specific nuclear receptor (Homo sapiens, UniProt Q9Y5X4). It is filed as functional.
The target of the next experiment is T1, Bcl-2-like protein 10 (Homo sapiens, UniProt Q9HD36).
T1 sequence (Q9HD36 whole entry): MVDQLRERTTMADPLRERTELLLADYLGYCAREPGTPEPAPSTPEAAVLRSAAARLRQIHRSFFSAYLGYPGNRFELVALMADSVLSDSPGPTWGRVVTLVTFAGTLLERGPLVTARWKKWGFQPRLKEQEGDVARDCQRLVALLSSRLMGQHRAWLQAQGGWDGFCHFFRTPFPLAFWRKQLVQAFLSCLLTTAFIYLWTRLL
Nature of the experiment: Biochemical TR3 FP assay of Bcl-B inhibitor potency, EC50 (AID 1243). It is filed as functional.

Experiment [2] concerns the target T2, Induced myeloid leukemia cell differentiation protein Mcl-1 (Homo sapiens, UniProt Q07820). The experiment can be described thus: MCL1-BIM BH3 interaction inhibitors, dose response, biochemical, fluorescence polarization, BIM-BH3 peptide, 1536-well (AID 2217). For orientation: Polarisation of emitted light reports the rotation of a fluorescent probe.
For experiment [3], the target named is Peroxisome proliferator-activated receptor gamma/Nuclear receptor corepressor 2 (Homo sapiens, UniProt P37231+Q9Y618). Format: functional.
In the next experiment the target is Bcl-2-like protein 1 (Homo sapiens, UniProt Q07817). Nature of the experiment: BCL-XL inhibitors, dose response, selectivity assay for MCL1 inhibitor project, biochemical, fluorescence polarization, 1536-well (AID 2218).
Experiment [4] concerns the target T2, Induced myeloid leukemia cell differentiation protein Mcl-1. It is filed as functional.
Experiment [5] can be described thus: NIH-3T3 fibroblast cytotoxicity, dose response, cytotoxicity control, cell-based, fluorescence, Alamar Blue, secondary assay (AID 2327).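 Also: NIH-3T3 mouse fibroblasts cultured with fluconazole at 8 µg/mL.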 It is filed as functional.
The nature of experiment [6]: inhibitors of firefly luciferase expression or activity, dose response, H4 neuroglioma cells, luminescence (AID 1990). It is filed as functional, cell-based.
For experiment [7], the system named is HEK293. Nature of the experiment: NOD1 signaling inhibitors, primary screen, cell-based, luminescence, uHTS (AID 1578). Format: functional. Particulars: Homo sapiens.
For experiment [8], the system named is HEK293. The experiment can be described thus: cells. Format: functional, cell-based. Particulars: Homo sapiens.
A short description of experiment [9]: Luminescence Cell-Based Dose Response HTS to Identify Inhibitors of 5'UTR Stem-Loop Driven Prion Protein mRNA Translation in H4 Neuroglioblastoma Cells. [Related pubchem assays: 1827 (Project Summary), 1813 (Primary HTS)]. It is filed as functional.
A short description of experiment [10]: inhibitors of SNCA 5'UTR-driven reporter translation, confirmation, H4 neuroglioma cells, luminescence (AID 1988). Format: functional, cell-based.
Experiment [11] can be described thus: C. albicans growth with fluconazole, confirmation, fluorescence, retest (AID 2467). Format: functional, cell-based.
In experiment [12] the test system is HEK293. Nature of the experiment: cells. It is filed as functional, cell-based. Particulars: Homo sapiens. The source holds these as a separate data set.
Experiment [13] is described as follows: Luminescence-based counterscreen assay for KLF5 inhibitors: dose response cell-based high throughput screening assay to identify cytotoxic compounds using the IEC-6 intestinal epithelial cell line. [Related pubchem assays: 1700 (Primary screen.), 1834 (Confirmation screen.), 1858 (Summary AID.), 1905 (Counterscreen.)]. Format: functional. Background: The purpose of a counterscreen is to sort out artefacts and off-target activity.

The target of experiment [14] is T3, Nucleotide-binding oligomerization domain-containing protein 2 (Homo sapiens, UniProt Q9HC29). The experiment can be described thus: NOD2 signaling inhibitors, cell-based, luminescence, uHTS, HEK293 (AID 1566). It is filed as functional.
The subject of experiment [15] is HEK293. The experiment can be described thus: NOD2 signaling inhibitors in MDP-stimulated cells, cell-based, uHTS, luminescence (AID 2001). It is filed as functional. Particulars: Homo sapiens.
Experiment [16] can be described thus: inhibitors of intracellular T. cruzi replication, confirmation, NIH3T3 host cells, beta-gal luminescence (AID 2044).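 Also: intracellular parasites grown in NIH/3T3 mouse fibroblasts as host cells; luminescent beta-galactosidase reporter signal from transgenic T. cruzi replicating inside host cells; inhibitors lower the luminescence signal.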 Format: functional, cell-based.
Experiment [17] has as its system HEK293. The experiment can be described thus: cells. Particulars: Homo sapiens. It is filed as functional, cell-based. The source holds these as a separate data set.
Experiment [18] in a line: cytotoxicity toward NIH3T3 fibroblasts, dose response, counter-screen, cell-based, ATP luminescence, mouse fibroblasts (AID 2010).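 Also: cells exposed to compound for about 90 hours before reading.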 It is filed as functional.
The target of experiment [19] is T4, Interleukin-8 (Homo sapiens, UniProt P10145).
T4 sequence (P10145 whole entry): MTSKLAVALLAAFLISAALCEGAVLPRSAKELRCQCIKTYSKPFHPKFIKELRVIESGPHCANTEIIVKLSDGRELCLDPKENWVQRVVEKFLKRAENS
Nature of the experiment: SAR analysis of Tumor necrosis factor alpha (TNF-alpha) induced IL-8 secretion in MCF-7/NOD1 cells - Set 2. [Related pubchem assays (depositor defined):AID1575, AID2250, AID2260]. Format: functional, cell-based.

The target of experiment [20] is T4, Interleukin-8. The experiment can be described thus: SAR analysis of GM-Tri-DAP induced IL-8 secretion in MCF-7/NOD1 cells - Set 2. [Related pubchem assays (depositor defined):AID1575, AID1578, AID2333]. It is filed as functional, cell-based.
In another experiment the target is Tumor necrosis factor (Homo sapiens, UniProt P01375). Nature of the experiment: TNFa-triggered NF-kB activation inhibitors, SAR follow-up, cell-based, revised (AID 2337). Format: functional.
In experiment [21] the target is T5, Nucleotide-binding oligomerization domain-containing protein 1 (Homo sapiens, UniProt Q9Y239).
T5 sequence (Q9Y239 whole entry): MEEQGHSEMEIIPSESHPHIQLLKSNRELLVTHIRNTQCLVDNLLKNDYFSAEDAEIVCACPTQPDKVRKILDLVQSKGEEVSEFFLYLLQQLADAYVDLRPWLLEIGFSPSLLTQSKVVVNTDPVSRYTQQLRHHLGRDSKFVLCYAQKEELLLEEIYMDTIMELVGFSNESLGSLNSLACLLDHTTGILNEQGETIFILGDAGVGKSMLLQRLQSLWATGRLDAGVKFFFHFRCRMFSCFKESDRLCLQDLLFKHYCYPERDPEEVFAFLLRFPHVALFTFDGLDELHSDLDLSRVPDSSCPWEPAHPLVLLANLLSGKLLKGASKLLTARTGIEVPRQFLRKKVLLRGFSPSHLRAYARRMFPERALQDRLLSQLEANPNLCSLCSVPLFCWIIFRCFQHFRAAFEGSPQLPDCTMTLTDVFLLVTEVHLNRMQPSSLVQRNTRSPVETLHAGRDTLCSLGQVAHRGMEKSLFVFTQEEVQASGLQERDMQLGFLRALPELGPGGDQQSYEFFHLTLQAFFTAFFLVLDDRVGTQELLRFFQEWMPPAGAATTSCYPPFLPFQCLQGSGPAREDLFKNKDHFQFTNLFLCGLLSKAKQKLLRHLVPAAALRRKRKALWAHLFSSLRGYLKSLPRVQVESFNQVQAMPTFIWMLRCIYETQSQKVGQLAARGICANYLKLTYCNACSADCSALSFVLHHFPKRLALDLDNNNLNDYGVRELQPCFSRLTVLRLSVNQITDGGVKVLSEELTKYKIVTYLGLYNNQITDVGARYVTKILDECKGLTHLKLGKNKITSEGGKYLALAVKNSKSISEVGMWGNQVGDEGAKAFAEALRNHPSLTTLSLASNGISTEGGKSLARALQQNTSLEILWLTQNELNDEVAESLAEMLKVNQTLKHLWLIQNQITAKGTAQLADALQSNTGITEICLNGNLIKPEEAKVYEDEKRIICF
Nature of the experiment: NOD1 signaling inhibitors, SAR follow-up, revised (AID 2333). Format: functional.

Experiment [22] deals with T3, Nucleotide-binding oligomerization domain-containing protein 2. Nature of the experiment: PubChem AID 2334. Format: functional.
Experiment [23] deals with Vero. Nature of the experiment: cells. It is filed as functional, cell-based. Particulars: Chlorocebus sabaeus.
In another experiment the test system is INS1. Nature of the experiment: beta cell apoptosis inhibitors, cytokine rescue, dose response, luminescence, retest (AID 449756).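 Also: cell death triggered by IL-1 beta plus TNF-alpha plus IFN-gamma mixture; protective hits raise ATP signal compared with cytokine alone wells.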 It is filed as functional, cell-based. Particulars: Rattus norvegicus.
For experiment [24], the system named is Vero. Nature of the experiment: cells. It is filed as functional. Particulars: Chlorocebus sabaeus.
The target in another experiment is Paired box protein Pax-8 (Homo sapiens, UniProt Q06710). The experiment can be described thus: inhibitors of PAX8-driven TPO luciferase reporter, dose response, RMG-I cells, cherry-pick (AID 687027).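 Also: luciferase reporter driven by Pax8 target thyroperoxidase promoter measured by SteadyGlo luminescence.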 It is filed as functional, cell-based. For orientation: In a reporter assay the amount or activity of a reporter protein is the signal.
In experiment [25] the test system is HEK293. The experiment can be described thus: cells. Particulars: Homo sapiens.
The target in experiment [26] is Serine/threonine-protein phosphatase PP1-alpha catalytic subunit (Homo sapiens, UniProt P62136). Nature of the experiment: PP1 phosphatase inhibitors, dose response, biochemical, fluorescence (AID 2403).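 Also: phosphatase turnover of OMFP into fluorescent 3-O-methylfluorescein.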
Experiment [27] addresses Serine/threonine-protein phosphatase (Homo sapiens, UniProt Q9BPW0). Nature of the experiment: Counterscreen for inhibitors of PP1: fluorescence-based biochemical high throughput dose response assay to identify inhibitors of Protein Phosphatase 5 (PP5). [Related pubchem assays: 2034 (Summary (PP5 inhibitors)), 1987 (PP5 inhibitors in singlate), 2235 (PP1 inhibitors in singlate)].

Another experiment deals with Nonstructural protein 1 (Influenza A virus, UniProt Q194T2). Format: functional, Influenza A virus (A/California/07/2009(H1N1)).

Activity calls are given as the source filed them. A value given as a limit tells only on which side of the number the result lay.

T3 sequence (Q9HC29 whole entry, the tested form may be a part): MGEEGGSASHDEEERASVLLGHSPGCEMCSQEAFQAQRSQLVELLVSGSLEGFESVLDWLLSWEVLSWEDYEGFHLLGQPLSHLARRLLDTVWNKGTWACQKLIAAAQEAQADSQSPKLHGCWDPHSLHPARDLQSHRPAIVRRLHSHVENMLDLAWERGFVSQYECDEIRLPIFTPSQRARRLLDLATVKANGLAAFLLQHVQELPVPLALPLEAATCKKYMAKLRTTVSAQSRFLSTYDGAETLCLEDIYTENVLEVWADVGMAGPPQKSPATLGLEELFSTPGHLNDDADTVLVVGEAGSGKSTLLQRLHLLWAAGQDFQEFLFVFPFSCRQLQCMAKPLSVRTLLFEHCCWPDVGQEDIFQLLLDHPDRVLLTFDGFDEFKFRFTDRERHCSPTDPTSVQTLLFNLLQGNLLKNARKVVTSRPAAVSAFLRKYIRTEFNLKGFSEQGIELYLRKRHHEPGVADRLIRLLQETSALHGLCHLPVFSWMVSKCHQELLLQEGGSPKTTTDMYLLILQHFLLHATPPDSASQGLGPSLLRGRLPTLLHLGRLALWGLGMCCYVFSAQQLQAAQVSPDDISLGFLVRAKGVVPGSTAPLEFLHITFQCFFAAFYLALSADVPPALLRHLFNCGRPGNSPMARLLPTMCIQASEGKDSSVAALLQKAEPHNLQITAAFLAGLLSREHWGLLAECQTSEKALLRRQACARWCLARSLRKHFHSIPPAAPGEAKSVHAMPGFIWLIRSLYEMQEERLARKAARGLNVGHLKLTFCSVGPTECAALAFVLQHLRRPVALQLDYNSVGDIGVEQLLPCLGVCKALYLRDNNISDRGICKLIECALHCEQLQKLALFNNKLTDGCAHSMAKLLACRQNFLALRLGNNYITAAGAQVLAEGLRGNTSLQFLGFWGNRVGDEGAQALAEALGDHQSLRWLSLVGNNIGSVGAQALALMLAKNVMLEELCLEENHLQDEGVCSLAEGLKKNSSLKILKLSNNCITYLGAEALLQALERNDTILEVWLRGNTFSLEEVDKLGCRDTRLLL
T2 sequence (Q07820 whole entry): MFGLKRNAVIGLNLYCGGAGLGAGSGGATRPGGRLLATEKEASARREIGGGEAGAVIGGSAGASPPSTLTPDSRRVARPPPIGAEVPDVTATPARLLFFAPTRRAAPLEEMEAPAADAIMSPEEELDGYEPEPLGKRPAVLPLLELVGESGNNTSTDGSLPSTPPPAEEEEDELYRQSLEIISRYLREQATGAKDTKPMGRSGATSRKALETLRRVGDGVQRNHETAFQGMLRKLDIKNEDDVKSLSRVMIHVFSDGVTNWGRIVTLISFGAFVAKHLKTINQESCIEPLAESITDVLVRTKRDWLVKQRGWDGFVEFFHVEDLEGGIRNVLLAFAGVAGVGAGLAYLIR
Sequence of Serine/threonine-protein phosphatase PP1-alpha catalytic subunit (P62136 whole entry): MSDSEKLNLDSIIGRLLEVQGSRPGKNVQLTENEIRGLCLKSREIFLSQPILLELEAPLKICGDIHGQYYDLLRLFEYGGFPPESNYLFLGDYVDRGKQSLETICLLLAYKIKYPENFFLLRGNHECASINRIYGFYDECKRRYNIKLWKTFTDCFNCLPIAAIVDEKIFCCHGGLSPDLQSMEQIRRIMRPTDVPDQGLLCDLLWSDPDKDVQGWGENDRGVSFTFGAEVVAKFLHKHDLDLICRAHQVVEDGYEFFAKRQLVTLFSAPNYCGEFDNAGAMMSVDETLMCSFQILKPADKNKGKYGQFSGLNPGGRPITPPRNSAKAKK
Sequence of Serine/threonine-protein phosphatase (Q9BPW0 whole entry): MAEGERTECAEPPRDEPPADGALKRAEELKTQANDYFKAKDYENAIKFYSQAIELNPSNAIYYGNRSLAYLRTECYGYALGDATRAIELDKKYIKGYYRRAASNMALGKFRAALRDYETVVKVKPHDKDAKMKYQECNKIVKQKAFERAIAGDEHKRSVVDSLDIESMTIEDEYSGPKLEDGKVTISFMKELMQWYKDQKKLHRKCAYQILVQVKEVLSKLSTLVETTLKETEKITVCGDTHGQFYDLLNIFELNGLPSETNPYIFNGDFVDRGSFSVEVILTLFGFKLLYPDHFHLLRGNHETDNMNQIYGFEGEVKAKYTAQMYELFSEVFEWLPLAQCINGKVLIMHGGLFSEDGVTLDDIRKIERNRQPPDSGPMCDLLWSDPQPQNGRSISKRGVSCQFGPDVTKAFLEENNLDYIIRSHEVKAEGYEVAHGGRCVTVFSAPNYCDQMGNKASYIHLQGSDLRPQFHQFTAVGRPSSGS
Sequence of Paired box protein Pax-8 (Q06710 whole entry): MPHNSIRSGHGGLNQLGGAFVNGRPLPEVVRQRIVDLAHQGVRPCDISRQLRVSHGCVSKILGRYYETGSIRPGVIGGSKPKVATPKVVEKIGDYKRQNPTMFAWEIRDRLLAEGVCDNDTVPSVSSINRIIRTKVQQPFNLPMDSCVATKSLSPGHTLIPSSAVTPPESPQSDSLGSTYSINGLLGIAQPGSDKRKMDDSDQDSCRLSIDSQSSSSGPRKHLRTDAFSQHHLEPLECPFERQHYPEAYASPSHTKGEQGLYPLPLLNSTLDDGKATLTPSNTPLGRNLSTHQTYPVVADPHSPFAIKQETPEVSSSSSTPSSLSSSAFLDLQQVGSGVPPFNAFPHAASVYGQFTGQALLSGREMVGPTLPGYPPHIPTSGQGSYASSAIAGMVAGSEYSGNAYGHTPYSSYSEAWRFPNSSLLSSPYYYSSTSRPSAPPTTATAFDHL
Sequence of Photoreceptor-specific nuclear receptor (Q9Y5X4 whole entry): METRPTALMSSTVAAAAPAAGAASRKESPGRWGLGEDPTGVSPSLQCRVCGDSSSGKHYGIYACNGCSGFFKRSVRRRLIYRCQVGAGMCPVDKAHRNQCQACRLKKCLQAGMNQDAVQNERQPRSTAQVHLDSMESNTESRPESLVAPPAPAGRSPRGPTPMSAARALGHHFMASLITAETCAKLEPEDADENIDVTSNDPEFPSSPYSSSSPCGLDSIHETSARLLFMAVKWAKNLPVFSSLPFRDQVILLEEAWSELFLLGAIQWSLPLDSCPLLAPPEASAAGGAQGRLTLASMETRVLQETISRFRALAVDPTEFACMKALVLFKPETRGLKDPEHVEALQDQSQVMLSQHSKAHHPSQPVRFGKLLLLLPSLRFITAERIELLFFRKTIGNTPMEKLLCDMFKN
Sequence of Tumor necrosis factor (P01375 whole entry, the tested form may be a part): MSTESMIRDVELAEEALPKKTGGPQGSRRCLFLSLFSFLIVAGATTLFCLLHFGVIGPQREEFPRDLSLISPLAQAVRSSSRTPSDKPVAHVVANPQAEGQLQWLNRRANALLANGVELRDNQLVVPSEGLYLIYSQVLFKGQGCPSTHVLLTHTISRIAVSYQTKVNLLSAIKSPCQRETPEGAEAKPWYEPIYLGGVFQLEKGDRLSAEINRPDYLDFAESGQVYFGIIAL
Sequence of Nonstructural protein 1 (Q194T2 whole entry): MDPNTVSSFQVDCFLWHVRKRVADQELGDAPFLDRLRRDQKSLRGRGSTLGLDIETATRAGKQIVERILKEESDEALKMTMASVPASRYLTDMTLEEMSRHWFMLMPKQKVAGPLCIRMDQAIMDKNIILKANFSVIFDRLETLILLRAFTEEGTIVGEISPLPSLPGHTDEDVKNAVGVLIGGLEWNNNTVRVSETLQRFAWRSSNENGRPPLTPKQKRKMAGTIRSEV
Sequence of Bcl-2-like protein 1 (Q07817 whole entry): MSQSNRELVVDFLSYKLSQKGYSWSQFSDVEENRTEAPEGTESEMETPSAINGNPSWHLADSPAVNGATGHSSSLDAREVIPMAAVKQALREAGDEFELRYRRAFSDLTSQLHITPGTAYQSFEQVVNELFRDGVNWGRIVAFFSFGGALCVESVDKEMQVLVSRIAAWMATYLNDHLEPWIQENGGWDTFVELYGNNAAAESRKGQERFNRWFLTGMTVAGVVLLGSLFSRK

Consider `Cc1ccc(-c2cc(C(=O)O)c3cc(Br)ccc3n2)o1`, for which the IC50 (usually the midpoint of a concentration-inhibition curve) was > 39.8 µM (not active) in experiment [1]; 27.9 µM (not active) in [2]; 3.93 µM (active) in [3]; > 109 µM (not active) against Bcl-2-like protein 1; 2.98 µM (active) in experiment [4]. In addition, on Bcl-2-like protein 10, the EC50 (as a rule, the midpoint of the concentration-response curve) is 16.5 µM (active).

For the molecule `Oc1ccc(N=Nc2ccccc2C(F)(F)F)c2cccnc12`, the EC50 was > 160 µM (inactive) in experiment [5]; 1.9 µM (active) in [6]; 3.71 µM (active) with HEK293 [7]; 1.08 µM (active) in experiment [9]; 308 nM (active) in [10]; 1.57 µM (active) in experiment [11]. Also, the EC50 is > 20 µM (inactive) in experiment [14], 633 nM (active) in [16] and 6.95 µM (active) in [18]. Moreover, the IC50 was > 20 µM (inactive) with HEK293 [8]; > 20 µM (inactive) with HEK293 [12]; 6.27 µM (active) in experiment [13]; 4.21 µM (inactive) in the experiment on HEK293 [15]; > 20 µM (inactive) with HEK293 [17]; > 25 µM (inactive) at Interleukin-8 [19]. In addition, the IC50 is 19.8 µM (active) on Interleukin-8 [20]; 7.03 µM (active) on Tumor necrosis factor; > 20 µM (inactive) in experiment [21]; > 20 µM (inactive) in experiment [22]; > 25 µM (active) in the experiment with Vero [23]; > 20 µM (inactive) in the experiment on HEK293 [25]. Moreover, the results for the AC50 with INS1 and on Paired box protein Pax-8 were 1.17 µM (active) and 4.15 µM (active), respectively. Besides, in the experiment with Vero [24], the CC50 (in general, the concentration giving 50% cytotoxicity) was 4.62 µM (active).

As for `Cc1ccn2c(Nc3ccc4c(c3)OCO4)c(-c3ccccn3)nc2c1`, the IC50 in experiment [26] is 6.76 µM (active); in [27], 37.9 µM (not active); at Nonstructural protein 1, 11.5 µM (active).
